For series [1], the system named is BEAS-2B cells. The experiment in a line: Toxicity: compound concentration needed to induce greater than 50 percent of cell loss. In kind it is cell-based, human. Conditions: 18 hours incubation. The essentials:
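Reported value is the concentration giving greater than 50 percent cell loss, grouped into bins (≥25 μM; between 1 and 25 μM; ≤1 μM as "+++"). Measured by high-content imaging of DAPI-stained BEAS-2B TFEB-EGFP cells fixed after 18 h compound exposure.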

The test system of series [2] is TFEB. The experiment in a line: High content screen measuring TFEB nuclear accumulation (TFEB nuclear/cytosol ratio) in BEAS-2B cells stably expressing TFEB-EGFP. Conditions: 18 hours incubation. It is filed as cell-based, human. The essentials:
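Readout: lowest compound concentration giving a 25% rise in nuclear/cytosol TFEB-GFP ratio, from DAPI-masked nuclear and mask-expanded cytosolic signals. Cells (BEAS-2B, TFEB-EGFP stable, ~2300–2500/well) rested 8 hours, then treated 18 hours with compound serial dilutions in 2% FBS medium before PFA fixation and DAPI staining.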

In the case of `c1ccc2c(Nc3ccc4nc(C5CC5)sc4c3)nc(-c3ccncc3)nc2c1` [Compound 91], in series [1], the “toxicity (compound concentration needed to induce greater than 50 percent of cell loss)” value is “+ (cell loss of greater than 50 percent at a concentration that equals or is greater than 25 μM was represented as)”. For the same compound, the “efficacy (minimal compound concentration needed to increase TFEB nuclear/cytosol ratio by 25%)” value in series [2] is on record as “+++ (“+++” equals ≤1 μM)”.

As to `c1ccc2c(Nc3ccc4[nH]ncc4c3)nc(-c3cncs3)nc2c1` [Compound 77], the “toxicity (compound concentration needed to induce greater than 50 percent of cell loss)” value in series [1] is reported as “+ (cell loss of greater than 50 percent at a concentration that equals or is greater than 25 μM was represented as)”. Besides, the “efficacy (minimal compound concentration needed to increase TFEB nuclear/cytosol ratio by 25%)” value in series [2] is given as “+++ (“+++” equals ≤1 μM)”.

As to `Cc1c(Nc2nc(-c3ccncc3)nc3ccncc23)ccc2[nH]ccc12` [Compound 126], in series [1], the “toxicity (compound concentration needed to induce greater than 50 percent of cell loss)” value is “+ (cell loss of greater than 50 percent at a concentration that equals or is greater than 25 μM was represented as)”. In addition, the “efficacy (minimal compound concentration needed to increase TFEB nuclear/cytosol ratio by 25%)” value in series [2] was “++ (“++” equals between ≤25 μM and >1 μM)”.

As to `Fc1cccc2c(Nc3ccc4cnsc4c3)nc(-c3ccncc3)nc12` [Compound 382], the “toxicity (compound concentration needed to induce greater than 50 percent of cell loss)” value in series [1] was “+ (cell loss of greater than 50 percent at a concentration that equals or is greater than 25 μM was represented as)”. Moreover, in series [2], the “efficacy (minimal compound concentration needed to increase TFEB nuclear/cytosol ratio by 25%)” value was “+ (“+” equals >25 μM)”.

As for `Fc1cc(Nc2nc(-c3ccncc3)cc3ncccc23)cc2sc(C3CC3)nc12` [Compound 246], in series [1], the “toxicity (compound concentration needed to induce greater than 50 percent of cell loss)” value is given as “+ (cell loss of greater than 50 percent at a concentration that equals or is greater than 25 μM was represented as)”. Besides, the “efficacy (minimal compound concentration needed to increase TFEB nuclear/cytosol ratio by 25%)” value in series [2] is “+++ (“+++” equals ≤1 μM)”.

For `COc1cc(F)cc(Nc2nc(-c3ccncc3)nc3ccccc23)c1` [Compound 19], the “toxicity (compound concentration needed to induce greater than 50 percent of cell loss)” value in series [1] was “+ (cell loss of greater than 50 percent at a concentration that equals or is greater than 25 μM was represented as)”. Further, the “efficacy (minimal compound concentration needed to increase TFEB nuclear/cytosol ratio by 25%)” value in series [2] was “+ (“+” equals >25 μM)”.

Take `c1ccc2c(Nc3ccc4[nH]ccc4c3)cc(-c3ccncc3)nc2c1` [Compound 67]: in series [1], the “toxicity (compound concentration needed to induce greater than 50 percent of cell loss)” value was “+ (cell loss of greater than 50 percent at a concentration that equals or is greater than 25 μM was represented as)”. The “efficacy (minimal compound concentration needed to increase TFEB nuclear/cytosol ratio by 25%)” value in series [2] is “+ (“+” equals >25 μM)”.

Consider `O=C(c1cccc(F)c1)c1nc(-c2ccncc2)nc2ccccc12` [Compound 5], for which the “toxicity (compound concentration needed to induce greater than 50 percent of cell loss)” value in series [1] was “+ (cell loss of greater than 50 percent at a concentration that equals or is greater than 25 μM was represented as)”. Further, the “efficacy (minimal compound concentration needed to increase TFEB nuclear/cytosol ratio by 25%)” value in series [2] is “+ (“+” equals >25 μM)”.

`Cc1c(-c2ccncc2)nc(Nc2ccc3nc(C4CC4)sc3c2)c2cccnc12` [Compound 333]: in series [1], the “toxicity (compound concentration needed to induce greater than 50 percent of cell loss)” value was “+ (cell loss of greater than 50 percent at a concentration that equals or is greater than 25 μM was represented as)”. Moreover, in series [2], the “efficacy (minimal compound concentration needed to increase TFEB nuclear/cytosol ratio by 25%)” value is given as “+++ (“+++” equals ≤1 μM)”.

As to `Fc1cc(Nc2nc(-c3cc[nH]c3)nc3ncccc23)cc2cc[nH]c12` [Compound 385], the “toxicity (compound concentration needed to induce greater than 50 percent of cell loss)” value in series [1] is “+ (cell loss of greater than 50 percent at a concentration that equals or is greater than 25 μM was represented as)”. Further, the “efficacy (minimal compound concentration needed to increase TFEB nuclear/cytosol ratio by 25%)” value in series [2] was “++ (“++” equals between ≤25 μM and >1 μM)”.

In the case of `c1cc(-c2nc(Nc3ccc4cnsc4c3)c3cnccc3n2)ccn1` [Compound 139], in series [1], the “toxicity (compound concentration needed to induce greater than 50 percent of cell loss)” value is “+ (cell loss of greater than 50 percent at a concentration that equals or is greater than 25 μM was represented as)”. For the same compound, in series [2], the “efficacy (minimal compound concentration needed to increase TFEB nuclear/cytosol ratio by 25%)” value is listed as “+ (“+” equals >25 μM)”.

Turning to `O=C1Cc2cc(Nc3nc(-c4ccncc4)nc4ccccc34)ccc2N1` [Compound 40], in series [1], the “toxicity (compound concentration needed to induce greater than 50 percent of cell loss)” value was “+ (cell loss of greater than 50 percent at a concentration that equals or is greater than 25 μM was represented as)”. Besides, in series [2], the “efficacy (minimal compound concentration needed to increase TFEB nuclear/cytosol ratio by 25%)” value is “++ (“++” equals between ≤25 μM and >1 μM)”.

On to `CCc1nc2ccc(Nc3nc(-c4ccncc4)nc4ccccc34)cc2o1` [Compound 360], for which the “toxicity (compound concentration needed to induce greater than 50 percent of cell loss)” value in series [1] is listed as “+ (cell loss of greater than 50 percent at a concentration that equals or is greater than 25 μM was represented as)”. In series [2], the “efficacy (minimal compound concentration needed to increase TFEB nuclear/cytosol ratio by 25%)” value is on record as “+ (“+” equals >25 μM)”.

With `Fc1ccccc1Nc1nc(-c2ccncc2)nc2ccccc12` [Compound 180], the “toxicity (compound concentration needed to induce greater than 50 percent of cell loss)” value in series [1] is listed as “+ (cell loss of greater than 50 percent at a concentration that equals or is greater than 25 μM was represented as)”. Besides, in series [2], the “efficacy (minimal compound concentration needed to increase TFEB nuclear/cytosol ratio by 25%)” value is recorded as “+ (“+” equals >25 μM)”.

In the case of `c1ccc2c(Nc3ccc4c(c3)OCO4)nc(-c3ccncc3)nc2c1` [Compound 12], the “toxicity (compound concentration needed to induce greater than 50 percent of cell loss)” value in series [1] is “+ (cell loss of greater than 50 percent at a concentration that equals or is greater than 25 μM was represented as)”. For the same compound, the “efficacy (minimal compound concentration needed to increase TFEB nuclear/cytosol ratio by 25%)” value in series [2] is reported as “+++ (“+++” equals ≤1 μM)”.

With `COc1ccc(NC(=O)Cn2c(=O)n(-c3ccc(CC(=O)NCCc4ccccc4)cc3)c(=O)c3ccccc32)cc1` [Compound 221], the “toxicity (compound concentration needed to induce greater than 50 percent of cell loss)” value in series [1] is listed as “+ (cell loss of greater than 50 percent at a concentration that equals or is greater than 25 μM was represented as)”. In addition, in series [2], the “efficacy (minimal compound concentration needed to increase TFEB nuclear/cytosol ratio by 25%)” value was “+ (“+” equals >25 μM)”.

Take `COc1ccc2nc(-c3ccncc3)nc(Nc3ccc4nc(C(C)C)sc4c3)c2c1` [Compound 352]: the “toxicity (compound concentration needed to induce greater than 50 percent of cell loss)” value in series [1] is listed as “+ (cell loss of greater than 50 percent at a concentration that equals or is greater than 25 μM was represented as)”. For the same compound, the “efficacy (minimal compound concentration needed to increase TFEB nuclear/cytosol ratio by 25%)” value in series [2] was “++ (“++” equals between ≤25 μM and >1 μM)”.

As to `Fc1cc(Nc2nc(-c3ccncc3)nc3ccccc23)cc(C(F)(F)F)c1` [Compound 18], the “toxicity (compound concentration needed to induce greater than 50 percent of cell loss)” value in series [1] is on record as “+ (cell loss of greater than 50 percent at a concentration that equals or is greater than 25 μM was represented as)”. Also, the “efficacy (minimal compound concentration needed to increase TFEB nuclear/cytosol ratio by 25%)” value in series [2] is “+ (“+” equals >25 μM)”.

Turning to `Fc1cccc(Nc2nc(-c3ccncc3)nc3ncccc23)c1` [Compound 82], the “toxicity (compound concentration needed to induce greater than 50 percent of cell loss)” value in series [1] is on record as “+ (cell loss of greater than 50 percent at a concentration that equals or is greater than 25 μM was represented as)”. The “efficacy (minimal compound concentration needed to increase TFEB nuclear/cytosol ratio by 25%)” value in series [2] was “+++ (“+++” equals ≤1 μM)”.

For the compound `N#Cc1cccc(Nc2nc(-c3ccncc3)nc3ccccc23)c1` [Compound 186], the “toxicity (compound concentration needed to induce greater than 50 percent of cell loss)” value in series [1] is reported as “+ (cell loss of greater than 50 percent at a concentration that equals or is greater than 25 μM was represented as)”. For the same compound, in series [2], the “efficacy (minimal compound concentration needed to increase TFEB nuclear/cytosol ratio by 25%)” value is on record as “+++ (“+++” equals ≤1 μM)”.

`c1cnc2cc(-c3ccncc3)nc(Nc3ccc4[nH]c(C5CC5)cc4c3)c2c1` [Compound 244]: the “toxicity (compound concentration needed to induce greater than 50 percent of cell loss)” value in series [1] was “+ (cell loss of greater than 50 percent at a concentration that equals or is greater than 25 μM was represented as)”. In addition, the “efficacy (minimal compound concentration needed to increase TFEB nuclear/cytosol ratio by 25%)” value in series [2] is recorded as “+++ (“+++” equals ≤1 μM)”.

`CCc1cc(F)cc(Nc2nc(-c3ccncc3)nc3ccccc23)c1` [Compound 21]: in series [1], the “toxicity (compound concentration needed to induce greater than 50 percent of cell loss)” value is recorded as “+ (cell loss of greater than 50 percent at a concentration that equals or is greater than 25 μM was represented as)”. In series [2], the “efficacy (minimal compound concentration needed to increase TFEB nuclear/cytosol ratio by 25%)” value was “+ (“+” equals >25 μM)”.

For `CCn1c(=O)c2ccccc2n(CC(=O)Nc2ccccc2)c1=O` [Compound 226], the “toxicity (compound concentration needed to induce greater than 50 percent of cell loss)” value in series [1] was “+ (cell loss of greater than 50 percent at a concentration that equals or is greater than 25 μM was represented as)”. In series [2], the “efficacy (minimal compound concentration needed to increase TFEB nuclear/cytosol ratio by 25%)” value was “+ (“+” equals >25 μM)”.

With `O=C(Cn1c(=O)n(CC2CCCO2)c(=O)c2ccc(C(=O)NCCc3ccccc3)cc21)Nc1ccc(Br)cc1` (stereo not drawn) [Compound 217], the “toxicity (compound concentration needed to induce greater than 50 percent of cell loss)” value in series [1] is listed as “+ (cell loss of greater than 50 percent at a concentration that equals or is greater than 25 μM was represented as)”. Moreover, the “efficacy (minimal compound concentration needed to increase TFEB nuclear/cytosol ratio by 25%)” value in series [2] is on record as “+ (“+” equals >25 μM)”.

For the compound `Fc1cccc2nc(-c3ccncc3)nc(Nc3ccc4[nH]ccc4c3)c12` [Compound 111], in series [1], the “toxicity (compound concentration needed to induce greater than 50 percent of cell loss)” value is recorded as “+ (cell loss of greater than 50 percent at a concentration that equals or is greater than 25 μM was represented as)”. For the same compound, in series [2], the “efficacy (minimal compound concentration needed to increase TFEB nuclear/cytosol ratio by 25%)” value is “+ (“+” equals >25 μM)”.

Take `c1ccc2c(NC3CC3)nc(-c3ccncc3)nc2c1` [Compound 165]: the “toxicity (compound concentration needed to induce greater than 50 percent of cell loss)” value in series [1] was “+ (cell loss of greater than 50 percent at a concentration that equals or is greater than 25 μM was represented as)”. For the same compound, the “efficacy (minimal compound concentration needed to increase TFEB nuclear/cytosol ratio by 25%)” value in series [2] is on record as “+ (“+” equals >25 μM)”.

`c1cncc(-c2cc3ncccc3c(Nc3ccc4nc(C5CC5)sc4c3)n2)c1` [Compound 247]: in series [1], the “toxicity (compound concentration needed to induce greater than 50 percent of cell loss)” value was “+ (cell loss of greater than 50 percent at a concentration that equals or is greater than 25 μM was represented as)”. For the same compound, the “efficacy (minimal compound concentration needed to increase TFEB nuclear/cytosol ratio by 25%)” value in series [2] was “++ (“++” equals between ≤25 μM and >1 μM)”.

The values are drawn from patent publication US12286442B2, “Methods and materials for increasing transcription factor eb polypeptide levels” (University of Pittsburgh—Of the Commonwealth System of …, priority 2019, dated 2025).
